Results on 1 molecule are retold here after patent US20210236449A1, “USE OF CHLOROGENIC ACID IN PREPARING DRUG FOR PREVENTING OR BLOCKING BRAIN AND/OR BONE METASTASES OF LUNG CANCER” (SICHUAN JIUZHANG BIOLOGICAL SCIENCE AND TECHNOLOGY CO., LTD, priority 2018, published 2021).

Marks after values point to notes of the source that are not given here.

The subject of the assay is EGFP-LA795 cells. The assay is described as follows: Inhibitory effect of chlorogenic acid on metastasis in LA795 lung cancer mice. Conditions: for Abdominal metastasis / Axial bone metastasis / Bloody ascites / Brain metastasis / Limb bone metastasis / Local lymph node metastasis: once a day for 20 days, mice with finding/n = 10. The assay is classed as in vivo, T739 mice. The text has this: (1) Animals: T739 mice, half male and half female, weighing 18-22 g, are provided by the Experimental Animal Center of Sichuan University.
(2) Lung cancer cell lines: LA795, provided by Wuhan Procell Life Technology Co., Ltd.; Fetal bovine serum, provided by Hangzhou Sijiqing Bioengineering Materials Co., Ltd.; plasmid EGFP-C1, provided by Clontech; Liposome transfection reagent Lipofectamin 2000, provided by Invitrogen.
LA795 cells were inoculated in a 6-well culture plate at 1×10^7 cells/mL, using DMEM complete medium containing 10% fetal bovine serum, and cultured in a 37° C., 5% CO2 incubator. When the cells were about 70% fused, liposome transfection reagent lipid Lipofectamin2000 was used and LA795 cells were transfected into plasmid EGFP-C1. 48 h after transfection, cells were passed and screened by G 418, then anti-G418 fluorescent positive clones appeared after about 4 weeks. Clones were observed under fluorescent inverted microscope, and one resistant fluorescent cell clone was randomly picked and transferred to 96-well plate for culture. After stepwise expansion, cells were routinely cultured and passaged. 400 μg/ml G418 was used to maintain screening and obtain expanded EGFP-LA795 cells. When EGFP-LA795 cells are 80%-90% fused in the logarithmic growth phase, they are digested with 0.25% trypsin, then centrifuged, and the cells are resuspended in DMEM to prepare a cell suspension for seeding (cell concentration 1×10^7 cells/mL). EGFP-LA795 cells grown on the wall were trypsinized to prepare a single cell suspension, and then diluted appropriately. The cell suspension was mixed with 0.4% trypan blue solution and counted under the microscope. The survival rate of EGFP-LA795 cells was >90%, and the positive clones were picked out under an inverted fluorescence microscope, followed by culture and amplification, to obtain LA795 cells with green fluorescence.
0.2 ml of EGFP-LA795 cell suspension at 1.0×10^7 cells/ml was inoculated into the armpit of mice, and then the mice were randomly divided into groups, 10 mice for each group, including the high-dose chlorogenic acid group, the middle-dose chlorogenic acid group, and the low-dose chlorogenic acid group and the model control group. Chlorogenic acid was administered by intraperitoneal injection, 40 mg/kg for the high-dose group, 20 mg/kg for the middle-dose group, 10 mg/kg for the low-dose group, and the administration volume was 1.0 ml; the model control group was given the same volume of normal saline by intraperitoneal injection, once a day for 20 days. In vivo imaging observations were performed on days 0, 10, and 20, respectively. After the test, the mice were sacrificed by cervical dislocation, and peripheral lymph nodes, axial bones, and long bones of the limbs were taken to observe and count metastases.
10% chloral hydrate was intraperitoneally injected at 4 ml/kg for anesthetization, and mice were put on the black rubber pad prepared for the in vivo imager. The irradiation conditions were GFP, the emission wavelength was 520 nm, the excitation wavelength was 480 nm, and the exposure time was 5 ms. The volume changes and metastasis of the tumor were observed.
Surrounding lymph nodes were taken out, and 8 μm conventional and frozen sections were obtained, and routinely stained with hematoxylin-eosin (HE) every other one, to observe the tumor metastasis under fluorescence microscope and light microscope.
Axial bones (such as ribs, spine, ilium, scapula) and long bones of the limbs of mice were chosen, cut into 0.5 cm×0.3 cm×0.3 cm bone pieces, and fixed with frozen 4% paraformaldehyde solution at 5° C. for 12 h-24 h; the bones were rinsed with phosphate buffer and decalcified with EDTA until the bone slices were completely decalcified. […]

[1] abbreviates: high dose group, 40 mg/kg intraperitoneal injection.
The mark [2] stands for this setting: low dose group, 10 mg/kg intraperitoneal injection.
The mark [3] stands for this setting: medium dose group, 20 mg/kg intraperitoneal injection.

`O=C(/C=C/c1ccc(O)c(O)c1)O[C@@H]1C[C@](O)(C(=O)O)C[C@@H](O)[C@H]1O` [Chlorogenic acid, chlorogenic acid]: the “metastasis of LA795 lung cancer cells in mice” value (20 mg/kg medium-dose group) is “No metastasis was found”. Further, under setting [1], the Abdominal metastasis is 1/10*, the Axial bone metastasis is listed as 0/10*, the Bloody ascites is given as 0/10* and the Brain metastasis is listed as 0/10*. In addition, under setting [1], the Limb bone metastasis is reported as 0/10* and the “Local lymph node metastasis” value was 1/10*. Also, under setting [2], the Abdominal metastasis was 2/10*, the Axial bone metastasis is on record as 0/10*, the Bloody ascites is reported as 0/10* and the Brain metastasis is on record as 0/10*. Under setting [2], the Limb bone metastasis is 0/10* and the “Local lymph node metastasis” value was 1/10*. The “number of metastatic foci in mice” value (low, medium and high dose groups versus model control group) was “significantly reduced”. In addition, under setting [3], the Abdominal metastasis is on record as 0/10*, the Axial bone metastasis is on record as 0/10*, the Bloody ascites is on record as 0/10* and the Brain metastasis is 0/10*. Moreover, under setting [3], the Limb bone metastasis is listed as 0/10* and the “Local lymph node metastasis” value was 0/10*.
